Results: patent US5298503A, “N-(isoquinolin-5-ylsulphonyl) azacycloalkanes” (Adir et Compagnie, priority 1991, dated 1994)
Structures can show the parent of a compound that is named as a salt.

Key:
[1] = test system: rat aortas; assay: Anti-vasoconstrictive activity in physiological medium: contraction of rat aortas induced by potassium depolarisation; set-up: species or system WISTAR rats; conditions: 0.25 h, hyperpotassic medium (80 mM KCl, 37 mM NaCl), cumulative concentrations every 15 minutes, 37° C., read-out: Concentration inhibiting by 50% (IC50) the contraction of rat aortas induced by potassium depolarisation
Protocol: (§1) The studies are carried out on rings, having a length of 3 mm, of aortas removed from WISTAR rats (325-375 g) which have been anaesthetised with sodium pentobarbital (30 mg/kg i.p.); or of aortas removed from New Zealand rabbits (1.8-2 kg) which have likewise been anaesthetised with sodium pentobarbital (30 mg/kg i.p.).
(§2) The vascular rings are immersed in a physiological solution, normal or calcium-free (+0.2 mM of EGTA chelator), which is kept at a temperature of 37° C. and aerated with a mixture of 95% O2 +5% CO2. The rings are connected to a STATHAM (UC2-GOULD) tension sensor. The optimum tensions for each vessel are applied and a stabilisation period of 90 minutes for the specimens is observed.
Table (T1) summarises the IC50s obtained with the compounds of the Examples representing the compounds of the invention, with regard to the contraction of rat aortas induced by a hyperpotassic medium.

[2] = test system: left auricle of guinea-pigs; assay: Effect on the toxic effects of ouabain on the left auricle of guinea-pigs; conditions: compound 10^-5 M, ouabain 10^-6 M; for % contracture: percentage of the initial contraction developed
Protocol: The left auricles are removed from guinea-pigs (350-450 g) which have been anaesthetised with sodium pentobarbital (30 mg/kg). The auricles are attached to a STATHAM (UC2-GOULD) tension sensor and the initial tension applied is 0.5 grammes. The auricles are stimulated electrically at 1 Hz by means of platinum electrodes.
Toxic effect is achieved by the addition of ouabain (10^-6 M). The test compounds are added 15 minutes prior to the addition of the toxic agent.

[3] = test system: rabbit aortas; assay: Anti-vasoconstrictive activity in calcium-free medium: contraction of rabbit aortas induced by noradrenaline; set-up: species or system New Zealand rabbits; conditions: Oryctolagus cuniculus, 0.5 h, 30 minutes incubation, noradrenaline 10^-6 M, calcium-free (+0.2 mM EGTA); for inhibition at 1 µM: 10^-6 M compound; for inhibition at 0.1 µM: 10^-7 M compound
Protocol: as §1, §2
The inhibitory effect of a concentration of the compounds of the invention incubated for 30 minutes, with regard to vascular contraction induced by nonadrenaline (10^-6 M), is tested.

[4] = test system: isolated rat's heart; assay: Protective effect on an isolated rat's heart subjected to hypoxia-reoxygenation; set-up: species or system WISTAR rats; conditions: compound 8·10^-7 M, solvent H2O; for % PVG at 30 min DE REOXYGENATION: 30 min reoxygenation after 60 min hypoxia
Protocol: The heart is removed from WISTAR rats (325-375 g). The heart is perfused rapidly according to the technique of LANGENDORFF at a constant pressure of 76 mmHg and is stimulated electrically at 5 Hz.
The heart is subjected to hypoxia for 60 minutes, which is effected by the administration of a gaseous mixture of 95% N2 +5% CO2 during that period, and is followed by reoxygenation for 30 minutes.
The test compounds are incubated for 15 minutes prior to and for the duration of the hypoxia.
The isovolumetric contractions are recorded by means of a polyethylene balloon connected to a pressure sensor (P23-GOULD) introduced into the left ventricle and inflated so as to obtain a diastolic pressure of between 5 and 10 mm of mercury.

Compound	IC50 [1]	% contraction ([2]; 10 min, solvent DMSO)	% contracture ([2]; 15 min, solvent DMSO)	% contraction ([2]; 30 min, solvent DMSO)	% contracture ([2]; 30 min, solvent DMSO)	% contraction ([2]; 60 min, solvent DMSO)	% contracture ([2]; 60 min, solvent DMSO)	inhibition at 1 µM [3]	% contraction ([2]; 10 min, solvent H2O)	% contracture ([2]; 15 min, solvent H2O)	% contraction ([2]; 30 min, solvent H2O)	% contracture ([2]; 30 min, solvent H2O)	% contraction ([2]; 60 min, solvent H2O)	% contracture ([2]; 60 min, solvent H2O)	inhibition at 0.1 µM [3]	Contracture amplitude at 15 min reoxygenation [4]	% PVG at 30 min DE REOXYGENATION [4]	Contracture amplitude at 30 min reoxygenation [4]
CN(CCCCCOc1ccc(F)cc1)C1CCN(S(=O)(=O)c2cccc3cnccc23)CC1 [Example 4, Fumarate of 1-(isoquinolin-5-ylsulphonyl)-4 {N-methyl N-[5-(p-fluorophenoxy)pentyl]amino}piperidine]		213.9 ± 22%	0%	208.6 ± 22%	0%	211.1 ± 30%	0%											
CN(CCCC(=O)c1ccc(F)cc1)CC1CCN(S(=O)(=O)c2cccc3cnccc23)CC1 [Example 5, Dihydrochloride of 1-(isoquinolin-5-ylsulphonyl)-4-{N-methyl-N-[4-(p-fluorophenyl)-4-oxobutyl]aminomethyl}piperidine]									206.1 ± 21%	0%	186.1 ± 21.2%	2.8 ± 2.1%	141.3 ± 25.3%	16.5 ± 9.5%				

Further lines, with some results ahead:

IC50 [1]	Compound	% contraction ([2]; 10 min, solvent DMSO)	% contracture ([2]; 15 min, solvent DMSO)	% contraction ([2]; 30 min, solvent DMSO)	% contracture ([2]; 30 min, solvent DMSO)	% contraction ([2]; 60 min, solvent DMSO)	% contracture ([2]; 60 min, solvent DMSO)	inhibition at 1 µM [3]	% contraction ([2]; 10 min, solvent H2O)	% contracture ([2]; 15 min, solvent H2O)	% contraction ([2]; 30 min, solvent H2O)	% contracture ([2]; 30 min, solvent H2O)	% contraction ([2]; 60 min, solvent H2O)	% contracture ([2]; 60 min, solvent H2O)	inhibition at 0.1 µM [3]	Contracture amplitude at 15 min reoxygenation [4]	% PVG at 30 min DE REOXYGENATION [4]	Contracture amplitude at 30 min reoxygenation [4]
9.2 µM	CN(CCCCOc1ccc(F)cc1)C1CCN(S(=O)(=O)c2cccc3cnccc23)CC1 [Example 1, Fumarate of 1-(isoquinolin-5-ylsulphonyl)-4-{N-methyl-N-[4-(p-fluorophenoxy)butyl]amino}piperidine]	254.7 ± 22%	0%	260.6 ± 29%	0%	253.6 ± 26%	4 ± 4%	62%										
3.3 µM	CN(CCCC(=O)c1ccc(F)cc1)C1CCN(S(=O)(=O)c2cccc3cnccc23)CC1 [Example 2, Dihydrochloride of 1-(isoquinolin-5-ylsulphonyl)-4-{N-methyl-N-[4-oxo-4-(p-fluorophenyl)butyl]amino}piperidine]							86%	184.0 ± 17.3%	1.4 ± 1.4%	138.8 ± 34.9%	10.5 ± 4.7%	112.2 ± 31.0%	33.5 ± 16.4%	50%	5.5 ± 4.3 mmHg	95.0 ± 1.9%	0.5 ± 0.5 mmHg
1.5 µM	CN(CCCOc1ccc(F)cc1)CC1CCN(S(=O)(=O)c2cccc3cnccc23)CC1 [Example 3, Fumarate of 1-(isoquinolin-5-ylsulphonyl)-4-{{N-methyl-N-[3-(p-fluorophenoxy)propyl]amino}methyl}piperidine]							82%	183.3 ± 20.7%	0.9 ± 0.9%	155.4 ± 15.0%	7.7 ± 1.5%	130.7 ± 34.5%	21.8 ± 6.2%	43%	9.6 ± 2.4 mmHg	85.4 ± 5.8%	1.6 ± 1.0 mmHg
